In publication PMC10043345, “Discovery of BAR502, as potent steroidal antagonist of leukemia inhibitory factor receptor for the treatment of pancreatic adenocarcinoma” (Frontiers in Oncology, 2023):
“Also recorded” adds a separate entry of the source.

What was measured:
LIF/LIFR complex = molecular target: T1, LIF/LIFR complex (Homo sapiens, UniProt P42702); assay: Alpha Screen inhibition of LIFR/LIF binding (cell-free); details: for effect on LIF/LIFR complex formation (LIFR antagonism), in words: cell-free Alpha Screen; for IC50: cell-free, LIFR 4.5 nM, biotinylated LIF 9 nM, read-out: LIFR IC50 AlphaScreen (inhibition of LIFR/LIF binding)
T1 construct: purchased Sino Biological (LIFR); R&D Systems (LIF)
T1 sequence (P42702 45-833 limits assumed): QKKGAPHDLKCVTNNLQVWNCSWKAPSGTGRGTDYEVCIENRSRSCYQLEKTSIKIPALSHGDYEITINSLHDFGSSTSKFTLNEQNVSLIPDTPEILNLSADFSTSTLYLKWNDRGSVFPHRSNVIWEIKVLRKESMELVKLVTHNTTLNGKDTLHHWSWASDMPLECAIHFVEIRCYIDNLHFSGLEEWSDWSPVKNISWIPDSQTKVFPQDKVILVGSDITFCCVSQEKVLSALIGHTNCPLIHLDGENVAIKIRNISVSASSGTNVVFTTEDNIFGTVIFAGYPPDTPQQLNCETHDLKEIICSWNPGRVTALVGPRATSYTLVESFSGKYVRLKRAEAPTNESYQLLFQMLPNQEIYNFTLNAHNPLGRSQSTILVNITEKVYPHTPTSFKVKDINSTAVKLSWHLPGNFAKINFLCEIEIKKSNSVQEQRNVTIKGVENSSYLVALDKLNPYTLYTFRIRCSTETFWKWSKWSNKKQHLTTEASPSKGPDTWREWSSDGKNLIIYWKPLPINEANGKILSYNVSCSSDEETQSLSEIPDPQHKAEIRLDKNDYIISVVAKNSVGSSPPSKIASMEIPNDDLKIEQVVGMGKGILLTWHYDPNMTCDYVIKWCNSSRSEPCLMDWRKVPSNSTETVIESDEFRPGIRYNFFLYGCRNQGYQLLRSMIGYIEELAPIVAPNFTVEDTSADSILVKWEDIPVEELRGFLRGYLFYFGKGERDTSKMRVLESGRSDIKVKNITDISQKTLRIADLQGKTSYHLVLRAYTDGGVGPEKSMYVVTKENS
Description: Recombinant human LIFR (His Tag) and biotinylated recombinant human LIF were purchased from Sino Biologicals (Sino Biological Europe GmbH, Dusseldorf, Germany) and R&D Systems (Abingdon, UK), respectively, and both were reconstituted as required by the manufacturer. […] The assay was carried out in white, low-volume, 384-well AlphaPlates (PerkinElmer, Waltham, MA, USA) using a final volume of 25 µL and an assay buffer containing 25 mM Hepes (pH 7.4), 100 mM NaCl, and 0.005% Kathon. The concentration of DMSO in each well was maintained at 5%. […] Then, LIF was added (biotinylated, final concentration 9 nM), and the samples were incubated for 15 min prior to adding His-Tag acceptor beads (final concentration 20 ng/µL) for 30 min. Then, streptavidin donor beads were added (final concentration 20 ng/µL), and the plate was incubated in the dark for 2 h and then read in an EnSpire Alpha multimode plate reader (PerkinElmer, Waltham, MA, USA).

MIA PaCa-2 cells = assay: Scratch wound healing assay; assay type: cell-based, human; details: LIF 10 ng/mL alone; 0, 24, 48 h
Description: MIA PaCa-2 cells were seeded in DMEM complete medium at […] cells/well into 24-well plate and used at 70-80% confluence rate. The assay was performed as previously described ([20]), particularly on the day 1, the cell monolayers were gently scraped vertically with a new 0.2 mL pipette tip across the centre of the well. After scratching, the well was gently washed twice with PBS (Euroclone, Milan, Italy) to remove the detached cells and cell debris and finally fresh medium containing LIF (10 ng/mL) alone or in combination with BAR502 (10 µM) or EC359 (25 nM) was added into each well. Immediately after scratch creation, the 24-plate was placed under a phase-contrast microscope and the first image of the scratch acquired (T0) with using a OPTIKAM Pro Cool 5 – 4083.CL5 camera. Cells were grown for additional 48 h and images taken at 24h (T1) and 48 h (T2). The gap distance between scarps borders was quantified by assessing that area between the two margins of the scratches. All experiments were performed in triplicate.

Row | Compound | effect on LIF/LIFR complex formation (LIFR antagonism), in words (LIF/LIFR complex) | IC50 (LIF/LIFR complex) | reduction of the scratch area (wound closure) (MIA PaCa-2 cells)
1 | C[C@H](CCC(=O)O)[C@H]1CC[C@H]2[C@@H]3[C@H](O)C[C@@H]4C[C@H](O)CC[C@]4(C)[C@H]3CC[C@]12C [CDCA, Chenodeoxycholic acid] | slight, thought significant, inhibitory effect; also recorded: weak LIFR antagonists | 48 µM | –
2 | C[C@H](CCC(=O)O)[C@H]1CC[C@H]2[C@@H]3CC[C@@H]4C[C@H](O)CC[C@]4(C)[C@H]3CC[C@]12C [LCA, Lithocholic acid] | slight, thought significant, inhibitory effect; also recorded: weak LIFR antagonists | 48.3 µM | –
3 | Leukemia Inhibitory factor [LIF] | – | – | ≈ 16%
